Consider 14 compounds from patent US20040180943A1, “Oxazolone analogs as amyloid aggregation inhibitors and for the treatment of alzheimer's disease and disorders related to amyloidosis” (priority 2002, published 2004).

Each structure is given as a SMILES string. “And” between values parts separate entries of the source, which are not always exact repeats. Equal entries are not always repeated. Where two headings read alike, the source gives them in different places.

Type in all cases: biochemical
In one assay the target is T1, Aβ(1-40) peptide (Homo sapiens, UniProt P05067).
T1 construct: Soluble Aβ(1-40) peptide (Bachem, Torrance, Calif.); purchased Bachem, Torrance, Calif
Description: BASSR (Beta-Amyloid Self-Seeding Radioassay), inhibitors of self-seeded amyloid fibril growth. The settings on record: 30 μM soluble Aβ(1-40) + 125I-labeled Aβ(1-40), pH 7.5, 37° C. for 3 to 5 hours, filtration. On the procedure: 1. BASSR (Beta-Amyloid Self-Seeding Radioassay)
An assay for inhibitors of self-seeded amyloid fibril growth
(§1) Assay Buffer—50 mM sodium phosphate, pH 7.5, 100 mM NaCl, 0.02% NaN3, 1 M urea (filter and store at 4° C.)
Soluble Aβ(1-40) peptide (Bachem, Torrance, Calif.)—2.2 mg/mL in deionized H2O (is stored in aliquots at −20° C.; is kept on ice when thawed) will self-seed after 1 week storage. Typically, the solution is stored until no lag phase is seen in the assay.
^125I-labeled Aβ(1-40)—150K to 350K cpm/μL in 100% acetonitrile—0.1% trifluoroacetic acid (TFA)—1% β-mercaptoethanol (aliquots stored at −20° C.). ^125I-labeled Aβ(1-40) is made in accordance with the procedure set forth by LeVine H., III, in Neurobiol. Aging, 1995;16:755, which is hereby incorporated by reference, or this reagent may be purchased from Amersham, Arlington Heights, Ill.
Final assay conditions: 30 μM soluble Aβ(1-40) in deionized water in assay buffer+20 K to 50 K cpm ^125I-labeled Aβ(1-40) per assay. Compound to be tested is dissolved in dimethylsulfoxide (DMSO), typically 5 to 50 mM stock, such that the final concentration of DMSO is <1% v/v in the assay.
Assay: Reaction mixture for 50 assays (on ice) is comprised of 0.1 to 0.2 μL of ^125I-labeled A^125I-labeled Aβ(1-40)+1 μL of soluble Aβ(1-40)+13.5 μL assay buffer per assay. The following are the amounts of the components of the reaction mixture sufficient for 50 assay wells.
1) The reaction mixture of above is prepared by mixing components and storing on ice.
2) 14.5 μL of the reaction mixture is pipetted into each of 50 wells on a polypropylene U-bottom 96-well microtiter plate on ice (Costar 3794).
(§2) 3) 1.7 μL of diluted compound to be tested is added to each well in a column of eight, including solvent control. Serial 3-fold dilutions from 1 mM (100 μM final) in assay buffer−urea=7 dilutions+zero. Each 96-well plate can therefore accommodate 11 samples+1 Congo Red control (0.039-5 μM final in 2-fold steps).
4) The plate with aluminum film (Beckman 538619) is sealed and incubated for 10 minutes on ice.
(§3) 5) The temperature is raised to 37° C. and incubated for 3 to 5 hours (depending on the lot of the peptide).
6) The aluminum film is removed and 200 μL/well of ice cold assay buffer with urea is added. The radiolabeled fibrils are collected by vacuum filtration through 0.2 μm pore size GVWP filters in 96-well plates (Millipore MAGV N22, Bedford, Mass.). The radioactivity of the filters is determined by using standard methods well-known to those skilled in the art.

A further assay concerns the target T2, Aβ (1-40) (Homo sapiens, UniProt P05067).
T2 construct: Soluble Aβ (1-40)—2.2 mg/mL in deionized H2O
Description: BASST (Beta-Amyloid Self-Seeding, ThioflavinT), inhibitors of self-seeded amyloid fibril growth. As to conditions: 30 μM soluble Aβ(1-40), pH 7.5, 37° C. for 3 to 5 hours, thioflavin T fluorescence. As to the method: 2. BASST (Beta-Amyloid Self-Seeding, ThioflavinT)
An assay for inhibitors of self-seeded arnyloid fibril growth
as §1
Soluble Aβ (1-40)—2.2 mg/mL in deionized H2O (is stored in aliquots at −20° C.; is kept on ice when thawed) will self-seed after 1 week storage. Typically, the solution is stored until no lag phase is seen in the assay.
Final assay conditions: 30 μM soluble Aβ(1-40) in deionized water in assay buffer. Compound to be tested is dissolved in DMSO, typically 5 to 50 mM stock, such that the final concentration of DMSO is <1% v/v in the assay.
Assay: Reaction mixture for 50 assays (on ice) is comprised of 1 μL of soluble Aβ(1-40)+13.5 μL assay buffer per assay. The following are the amounts of the components of the reaction mixture that result in each of the 50 assay wells.
1) The reaction mix above is prepared by mixing the components and storing on ice.
2) 14.5 μL of reaction mixture is pipetted into each of 50 wells of a polystyrene U-bottom, 96-well microtiter plate (Corning 25881-96) on ice.
as §2
4) The plate with aluminum film is sealed and incubated for 10 minutes on ice.
as §3
6) The aluminum film is removed and 250 μL/well of 5 μM thioflavin T (ThT) [T-3516, Sigma-Aldrich] is added in 50 mM glycine-NaOH, pH 8.5. Fluorescence is read on a plate reader (ex=440 nm/20 nm; em=485 nm/20 nm) within 5 minutes.

Another assay concerns the target T3, Aβ (1-42) (Homo sapiens, UniProt P05067).
T3 construct: Required Aβ (1-42) (California Peptide) is dried from its hexafluoroisopropanol (HFIP) stock solution; purchased California Peptide
Description: Batym Assay (Aβ(1-42) aggregation, Thioflavin T fluorescence). As to conditions: Aβ 1-42 final concentration 100 μM, PBS pH 7.4, 37° C. for 1 day, ThT fluorescence. On the procedure:
Required Aβ (1-42) (California Peptide) is dried from its hexafluoroisopropanol (HFIP) stock solution. The Aβ (1-42) is dissolved in DMSO and then mixed with phosphate buffered saline (PBS) (pH 7.4). The mixed Aβ (1-42) solution is filtered with a GVWP 0.22 μm syringe filter (Millipore, Bedford, Mass.). The compound to be tested in DMSO (50 times concentrate) is put into each well (0.5 μL/well) of a 96-well plate. The Aβ(1-42) solution is added into each well (25 μL/well). The plate is centrifuged at 1000 g for 5 minutes and incubated at 37° C. for 1 day (Aβ 1-42; final concentration 100 μM).
After incubation Thioflavin T (ThT) (30 μM) solution in glycine-NaOH buffer (pH 8.5, 50 mM) is added into each well (250 μL/well), fluorescence is measured (ex=440/20 nm, em=485/20 nm) using a fluorescence plate reader. The inhibitory activity is calculated as the reduction of fluorescence with the following formula:
Inhibition(%)={(F(Aβ)−F(Aβ+compound)}/{F(Aβ)−F(solvent−compound)}×100.
The IC50s are calculated by a curve-fitting program using the equation given below. The data is obtained from two different experiments in triplicate.
x=concentration of tested compound (M),

Broadly, the IC50 is the point on the concentration scale where inhibition reaches its midpoint.

T1 sequence (P05067 672-711): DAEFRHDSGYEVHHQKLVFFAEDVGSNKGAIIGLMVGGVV
T2 sequence (P05067 672-711): as above
T3 sequence (P05067 672-713): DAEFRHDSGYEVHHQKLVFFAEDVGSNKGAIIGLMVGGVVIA

Regarding `O=C1OC(c2ccccc2)=N/C1=C\c1ccc(F)c(C(F)(F)F)c1` [compound 14, 4-(4-Fluoro-3-trifluoromethyl-benzylidene)-2-phenyl-4H-oxazol-5-one], the IC50 at Aβ(1-40) peptide (read-out: BASSR (IC50 = μM)) and on Aβ (1-40) (read-out: BASST (IC50 = μM)) was over 100 µM in each case.

On to `O=C1OC(c2ccccc2)=N/C1=C\c1ccc2c(c1)OCO2` [compound 2, 4-1,3-Benzodioxol-5-ylmethylene-2-phenyl-4H-oxazol-5-one], for which the IC50 against Aβ (1-42) was over 100 µM; at Aβ(1-40) peptide (read-out: BASSR (IC50 = μM)) it was 21 µM.

Consider `COc1ccc(/C=C2\N=C(c3ccccc3)OC2=O)cc1OC` [compound 4, 5(4H)-Oxazolone,4-[(3,4-dimethoxyphenyl)methylene]-2-phenyl-], for which the IC50 was over 100 µM against Aβ (1-42); 7 µM and 8 µM on Aβ(1-40) peptide (read-out: BASSR (IC50 = μM)); over 100 µM on Aβ (1-40) (read-out: BASST (IC50 = μM)).

Take `COc1c(/C=C2\N=C(c3ccccc3)OC2=O)cc([N+](=O)[O-])cc1[N+](=O)[O-]` [compound 3, 4-(2-Methoxy-3,5-dinitro-benzylidene)-2-phenyl-4H-oxazol-5-one]: the IC50 is over 100 µM on Aβ(1-40) peptide (BASSR (IC50 = μM)) and 7 µM against Aβ (1-40) (BASST (IC50 = μM)).

For the compound `O=C1OC(c2ccccc2)=N/C1=C\c1ccccc1` [compound 1, 4-Benzylidene-2-phenyl-4H-oxazol-5-one], the half-inhibitory concentration (IC50) at Aβ(1-40) peptide (read-out: BASSR (IC50 = μM)) and at Aβ (1-40) (read-out: BASST (IC50 = μM)) was over 100 µM throughout.

Consider `O=C1OC(c2ccc([N+](=O)[O-])cc2)=N/C1=C\c1ccc(Cl)c(Cl)c1` [compound 13, 4-(3,4-Dichloro-benzylidene)-2-(4-nitro-phenyl)-4H-oxazol-5-one], for which the IC50 at Aβ(1-40) peptide (read-out: BASSR (IC50 = μM)) came out at 70 µM; at Aβ (1-40) (read-out: BASST (IC50 = μM)) it was 90 µM.

For the compound `O=C1OC(c2ccccc2)=N/C1=C\c1ccc(Cl)c(Cl)c1` [compound 11, 4-(3,4-Dichloro-benzylidene)-2-phenyl-4H-oxazol-5-one], the figures for the IC50 at Aβ(1-40) peptide (read-out: BASSR (IC50 = μM)) and at Aβ (1-40) (read-out: BASST (IC50 = μM)) were 21 µM and 30 µM, respectively.

For `COc1cccc(/C=C2\N=C(c3ccc([N+](=O)[O-])cc3)OC2=O)c1OC` [compound 9, 4-(2,3-Dimethoxy-benzylidene)-2-(4-nitro-phenyl)-4H-oxazol-5-one], the 50% inhibitory concentration (IC50) is over 100 µM on Aβ(1-40) peptide (read-out: BASSR (IC50 = μM)) and 12 µM at Aβ (1-40) (read-out: BASST (IC50 = μM)).

`COc1ccc(/C=C2\N=C(c3ccccc3I)OC2=O)cc1OC` [compound 10, 4-(3,4-Dimethoxy-benzylidene)-2-(2-iodo-phenyl)-4H-oxazol-5-one]: the half-inhibitory concentration (IC50) on Aβ(1-40) peptide (read-out: BASSR (IC50 = μM)) is over 100 µM; on Aβ (1-40) (read-out: BASST (IC50 = μM)) it was 15 µM.

Turning to `Cc1ccc(/C=C2\N=C(c3ccccc3)OC2=O)cc1C` [compound 12, 4-(3,4-Dimethyl-benzylidene)-2-phenyl-4H-oxazol-5-one], on Aβ(1-40) peptide (read-out: BASSR (IC50 = μM)), the IC50 is over 100 µM.

On to `CN(C)c1ccc(/C=C2\N=C(c3ccccc3)OC2=O)c2ccccc12` [compound 6, 4-(4-Dimethylamino-naphthalen-1-ylmethylene)-2-phenyl-4H-oxazol-5-one], for which the figures for the half-inhibitory concentration (IC50) at Aβ (1-42), on Aβ(1-40) peptide (read-out: BASSR (IC50 = μM)) and at Aβ (1-40) (read-out: BASST (IC50 = μM)) were 14.5 µM, over 100 µM and 2.6 µM, respectively.

`COc1cccc(/C=C2\N=C(c3ccccc3)OC2=O)c1` [compound 8, 4-(3-Methoxy-benzylidene)-2-phenyl-4H-oxazol-5-one]: the IC50 is over 100 µM at Aβ(1-40) peptide (read-out: BASSR (IC50 = μM)) and 7 µM at Aβ (1-40) (read-out: BASST (IC50 = μM)).

As for `CCCN(CCC)c1ccc(/C=C2/N=C(c3ccccc3)OC2=O)cc1` [compound 7, 4-(4-Dipropylamino-benzylidene)-2-phenyl-4H-oxazol-5-one], the IC50 at Aβ (1-42) was 2.42 µM and 2.36 µM; on Aβ(1-40) peptide (read-out: BASSR (IC50 = μM)) it was over 100 µM; at Aβ (1-40) (read-out: BASST (IC50 = μM)), 8 µM.

With `COc1ccc(C2=N/C(=C\c3ccccc3)C(=O)O2)cc1` [compound 5, 4-Benzylidene-2-(4-methoxy-phenyl)-4H-oxazol-5-one], the half-inhibitory concentration (IC50) on Aβ(1-40) peptide (read-out: BASSR (IC50 = μM)) was 16 µM.
